Results on one compound are retold here after patent US11564924B2, “Pharmaceutical composition formed by combining pyridoxamine compound and thiamine compound” (RENASCIENCE CO., LTD., priority 2014, dated 2023).

Each structure is given as a SMILES string.

Holding throughout (assay type): in vivo, human
Data set [1] relates to pentosidine. The data set can be described thus: Plasma pentosidine concentration in schizophrenia patients (HPLC). The following applies: Day 169 vs Day 1; nine subjects. From the text: Drug administration was initiated for nine subjects from whom consent was obtained. The observation period was defined as the period from the day on which consent was obtained (Day −14) to the day 2 weeks after the day of consent (Day 0), and the initial day of drug administration was defined as Day 1. The data of Day 1 is data immediately before the start of administration of the pyridoxamine compound. The drug administration period was defined as the 24-week period from the start of drug administration (Day 1 to Day 169). […]
In the morning […], on the initial day of drug administration (Day 1), and on Day 15, Day 29, Day 85, and Day 169 after the start of drug administration, blood was drawn from the nine subjects above before administration of the drug. […] The plasma pentosidine concentration was measured according to the method described below. […]
The samples prepared as described above were diluted 10-fold with Milli-Q water (diluted samples). […] The diluted samples and the diluted pentosidine standard were subjected to HPLC (HPLC apparatus produced by Shimadzu Science) under the following conditions, and analysis of pentosidine was performed with a fluorescence measuring device (SLC-10Avp; equipped with UV and fluorescence detectors). […]

Data set [2] has as its system vitamin B1 deficiency. Nature of the data set: Prevention of vitamin B1 deficiency by pyridoxamine compound in combination with thiamine compound. The following applies: seven schizophrenia patients; pyridoxamine dihydrochloride 1200 to 1800 mg per day oral for 24 weeks, with fursultiamine 75 mg/day oral from 2 to 21 weeks after start.
Data set [3] has as its system Wernicke's encephalopathy. Nature of the data set: Wernicke's encephalopathy findings (MRI of the brain, symptoms) during drug administration. How it is done:
Immediately after the patient was suspected of having Wernicke's encephalopathy, oral administration of a thiamine compound (fursultiamine (Takeda Pharmaceutical Company Limited)) at a dose of 75 mg/day was initiated (administered once a day) and continued every day.
Immediately after the patient was suspected of having Wernicke's encephalopathy, intravenous administration of a thiamine compound (fursultiamine (Takeda Pharmaceutical Company Limited)) (300 mg/day) was performed, and then (from 10 weeks after the start of drug administration), oral administration of the thiamine compound at a dose of 100 to 50 mg/day was continued.

Data set [4] can be described thus: Serum pyridoxamine and pyridoxal concentrations in schizophrenia patients during drug administration. How it is done: Measurement of the serum pyridoxamine concentration, the serum pyridoxal concentration, and the serum pyridoxine concentration was outsourced to SRL Inc. or Mitsubishi Chemical Medience Corporation (now LSI Medience Corporation).
Pyridoxamine dihydrochloride was orally administered as a pyridoxamine compound to schizophrenia patients daily, three times a day (morning, noon, and before bedtime) in an amount of 400 mg or 600 mg each time (daily dose of pyridoxamine: about 830 mg or 1250 mg) according to the protocols shown in FIG. 2 (described as “PM dose (mg/one time)” in FIG. 2).

On to `Cc1ncc(CO)c(CN)c1O.Cl.Cl` [pyridoxamine dihydrochloride], for which the “blood pentosidine concentration at the end of administration versus Day 1” value in data set [1] was “lower than that on Day 1 in at least seven subjects”. Besides, the “findings suggestive of vitamin B1 deficiency” value in data set [2] was “no findings suggestive of vitamin B1 deficiency were observed in any of the seven schizophrenia patients”. The “MRI of the brain finding during drug administration” value is recorded as “findings suggestive of Wernicke's encephalopathy” in data set [3] (patient ID No. 3, 6 weeks after the start of drug administration, after an epilepsy-like symptom) and “findings suggestive of Wernicke's encephalopathy” in data set [3] (patient ID No. 6, 9 weeks after the start of drug administration). In addition, the “serum pyridoxamine concentration, times higher than at the start of drug administration” value was “about 7700 times” in data set [4] (patient ID No. 3, 4 weeks after the start of drug administration) and “about 2100 times” in data set [4] (patient ID No. 6, 8 weeks after the start of drug administration).
